# In patent US20250011881A1, “MYC-HSF1 DUAL AMPLIFICATION AS A BIOMARKER FOR CANCER TREATMENT” (The Trustees of Indiana University, priority 2023, published 2025):
# Counter-ions that a name gives are not always drawn.
# Tested on: ovarian cancer cells with (OVCAR8, OVCAR4) or without (OVSAHO, CAOV3) MYC-HSF1 amplification
# Assay: Epigenetic inhibitor drug screen, cell viability (Cell Titer Blue)
# Assay type: cell-based
# Details: not given
row,SMILES,Non Amp - AMP (POC) 10 uM [POC]
1,CO[C@@]12[C@H](COC(N)=O)C3=C(C(=O)C(C)=C(N)C3=O)N1C[C@@H]1N[C@@H]12 [Mitomycin C],14.14

# Same assay, conditions: 10 uM, 48 hrs; average relative cell viability (vs 1% DMSO) of non-amplified cells (OVSAHO, CAOV3) minus that of MYC-HSF1 amplified cells (OVCAR8, OVCAR4); positive = greater response in amplified cells
row,SMILES,Non Amp - AMP (POC) 10 uM [POC]
1,O=c1c(O)c(-c2ccc(O)c(O)c2)oc2cc(O)ccc12 [Fisetin],10.02
2,O=C(O)CNC(=O)c1c(O)c2ccccc2n(Cc2ccccc2)c1=O [IOX2(Glycine)],10.17
3,N#Cc1c(-c2ccccc2)cc(-c2cc(Br)ccc2O)[nH]c1=O [TCS PIM-1 1],0.7424
4,CCN(CC)C(=O)/C(C#N)=C/c1cc(O)c(O)c([N+](=O)[O-])c1 [Entacapone],−6.777
5,CN(C)CCCCC(=O)Nc1ccc(NC(=S)NC(=O)c2ccc(C(C)(C)C)cc2)cc1 [Tenovin-6],0.07933
6,CCCCN(Cc1ccc(C(=O)NO)cc1)C(=O)Nc1ccccc1 [Nexturastat A],23.67
7,O=S(=O)(NCCSSCCNS(=O)(=O)c1cc(Cl)ccc1Cl)c1cc(Cl)ccc1Cl [KC7F2],−3.553
8,CCOC(=O)c1ccc(NC(=O)O[C@H]2[C@H](OC(=O)Nc3ccc4c(c3)OCO4)[C@@H](OC(=O)Nc3ccc4c(c3)OCO4)[C@@H](OC)O[C@@H]2CO)cc1 [BRD 7552],−0.1565
9,N.N.O=C([O-])C1(C(=O)[O-])CCC1.[Pt+2] [Carboplatin],−13.46
10,"O=c1c(-n2ccnn2)c[nH]n1-c1cc(N2CCOCC2)ncn1 [Molidustat (BAY85-3934), Molidustat]",−4.287
11,CC(C)N(CCCNC(=O)Nc1ccc(C(C)(C)C)cc1)C[C@H]1O[C@@H](n2ccc3c(N)ncnc32)[C@H](O)[C@@H]1O.O=CO [EPZ004777 (formate)],10.91
12,O=C(Nc1c[nH]nc1-c1nc2ccc(CN3CCOCC3)cc2[nH]1)NC1CC1 [AT9283],−1.133
13,CN1CCCN(C(=O)c2cccc(-c3ccc(/C=C4/C(=O)Nc5ccc(Cl)cc54)o3)c2)CC1 [CX-6258],−7.528
14,CCn1c(C(=O)N(C2CC2)C2CC2)cc2c3c(ncn3C)c(Nc3cc(C)n(C)n3)nc21 [BMS-911543],1.85
15,CCC(CC)n1ccc2c(C(=O)NCc3c(C)cc(C)[nH]c3=O)cc(C#N)cc21 [EI1],15.27
16,O=C(O)CNC(=O)c1nc(Cl)c2ccccc2c1O [FG2216],−1.816
17,"NC(=O)c1ccc(I)c([N+](=O)[O-])c1 [Iniparib (BSI-201), Iniparib]",−7.53
18,Nc1ccn([C@@H]2O[C@H](CO)[C@@H](O)[C@@H]2O)c(=O)n1 [Cytarabine],1.9

row,SMILES,Non Amp - AMP (POC) 10 uM [POC]
1,Cc1ccc(NC(=O)CCCCCC(=O)Nc2ccccc2N)cc1 [TC-H 106],8.223
2,COc1ccc(C2(CNC(=O)c3ccc(NC(=O)c4ccco4)cc3)CCOCC2)cc1 [JW 55],−6.598
3,NC(=O)c1cccc2[nH]c(-c3ccc([C@@H]4CCCN4)cc3F)nc12 [A-966492],13.6
4,O=C(Cc1ccccc1)Nc1ccc2oc(-c3ccc(Cl)cc3Cl)nc2c1 [CAY10722],−11.2
5,CCCCCCCc1ccc(CCc2cccc(O)c2C(=O)O)cc1 [MG 149],−0.4614
6,CCS(=O)(=O)N1CC(CC#N)(n2cc(-c3ncnc4[nH]ccc34)cn2)C1.O=P(O)(O)O [Baricitirib phosphate],7.373
7,O=C(/C=C/c1cccc(C(=O)NO)c1)NO [CBHA],37.53
8,Cc1nc(C(=O)NCC(=O)O)c(O)c2ccc(Oc3ccccc3)cc12 [FG-4592 (ASP1517)],−0.1816
9,O=C(O)c1ccc(Nc2ncc3c(n2)-c2ccc(Cl)cc2C(c2c(F)cccc2F)=NC3)cc1 [MLN8054],−12.87
10,Cc1cc(Nc2cc(CN3CCOCC3)c3nc(C)c(Cc4ccc(Cl)cc4F)n3n2)n[nH]1 [LY2784544],−1.068
11,CC(C)N(CCC(=O)c1ccc2ccccc2c1)Cc1ccccc1 [ZM 39923 HCl],−4.611
12,CN1CCN(c2ccc(-c3cccc(CN4CCOCC4)c3)cc2NC(=O)c2c[nH]c(=O)cc2C(F)(F)F)CC1 [OICR-9429],12.58
13,"O=C(CCCCCCNC(=O)c1cnc(N(c2ccccc2)c2ccccc2)nc1)NO [Rocilinostat (ACY-1215), Rocilinostat]",32.23
14,COc1cc2c(cc1OC)C(=O)C(CC1CCN(Cc3ccccc3)CC1)C2 (centres unmarked) [Donepezil HCl],−4.516
15,COc1cc2c(NC3CCN(C4CCCCC4)CC3)nc(N3CCCN(C(C)C)CC3)nc2cc1OCCCN1CCCCC1 [UNC 0646],45.25
16,COc1cc(-c2cn(C)c(=O)c3cnccc23)c(OC)cc1CN(C)C [BI-9564],11
17,"O=P(O)(O)OC(CO)CO [β-Glycerophosphate (sodium salt hydrate), β-Glycerophosphate]",2.069
18,COc1ccc(S(=O)(=O)ON=C2C=C(C)C(=O)C(C)=C2)cc1 [L002],−39.83

# Same assay, conditions: 10 uM, 48 hrs; average relative cell viability (vs 1% DMSO) of non-amplified cells (OVSAHO, CAOV3) minus that of MYC-HSF1 amplified cells (OVCAR8, OVCAR4); positive = greater response in amplified cells; 10 µM
row,SMILES,Non Amp - AMP (POC) 10 uM [POC]
1,"CCN(CC)Cc1ccc2cc(COC(=O)Nc3ccc(C(=O)NO)cc3)ccc2c1 [ITF 2357, Givinostat]",40.35
2,Nc1ccc(S(=O)(=O)NCCc2ccccc2)cc1 [C-7280948],13.45
3,"C[C@@H]1CCN(C(=O)CC#N)C[C@@H]1N(C)c1ncnc2[nH]ccc12 [Tofacitinib (CP-690550) Citrate, Tofacitinib]",3.666
4,Cc1sc2c(c1C)C(c1ccc(Cl)cc1)=N[C@@H](CC(=O)Nc1ccc(O)cc1)c1nnc(C)n1-2 [OTX015],15.65
5,"C[C@]1(c2nc3c(C(N)=O)cccc3[nH]2)CCCN1 [ABT-888 (Veliparib), Veliparib]",−1.058
6,O=C(/C=C/N1C[C@H]2C[C@@H]1CN2c1ccccn1)c1ccccc1O [PFI-3],12.92
7,Nc1nc2nc[nH]c2c(=S)[nH]1 [Thioguanine],9.104
8,COc1cc2c(NC3CCN(C)CC3)nc(N3CCCN(C)CC3)nc2cc1OCCCN(C)C [UNC0224],7.132
9,CC(C)Oc1ccc(-c2c[nH]cc2CN(C)CCN)cc1 [MS023 (hydrochloride)],6.531
10,CC(/C=C/C(=O)NO)=C\[C@@H](C)C(=O)c1ccc(N(C)C)cc1 [Trichostatin A],47.34
11,Cl.O=C([C@@H](Cc1cccc(C(F)(F)F)c1)NS(=O)(=O)c1cc(F)c2c(c1)CCNC2)N1CCCC1 [(R)-PFI-2 (hydrochloride)],19.35
12,Cl.O=C([C@@H](Cc1cccc(C(F)(F)F)c1)NS(=O)(=O)c1cc(F)c2c(c1)CCNC2)N1CCCC1 [PFI-2 (hydrochloride)],2.189

# Same assay, conditions: 10 uM, 48 hrs; average relative cell viability (vs 1% DMSO) of non-amplified cells (OVSAHO, CAOV3) minus that of MYC-HSF1 amplified cells (OVCAR8, OVCAR4); positive = greater response in amplified cells; dihydrochloride, 10 µM
row,SMILES,Non Amp - AMP (POC) 10 uM [POC]
1,C[C@]1(c2nc3c(C(N)=O)cccc3[nH]2)CCCN1 [Veliparib dihydrochloride],−2.841

# Same assay, conditions: 10 uM, 48 hrs; average relative cell viability (vs 1% DMSO) of non-amplified cells (OVSAHO, CAOV3) minus that of MYC-HSF1 amplified cells (OVCAR8, OVCAR4); positive = greater response in amplified cells; listed as C7280948, 10 µM
row,SMILES,Non Amp - AMP (POC) 10 uM [POC]
1,Nc1ccc(S(=O)(=O)NCCc2ccccc2)cc1 [C-7280948],0.5735

# Same assay, conditions: 10 uM, 48 hrs; average relative cell viability (vs 1% DMSO) of non-amplified cells (OVSAHO, CAOV3) minus that of MYC-HSF1 amplified cells (OVCAR8, OVCAR4); positive = greater response in amplified cells; listed as ITF2357 (Givinostat), 10 µM
row,SMILES,Non Amp - AMP (POC) 10 uM [POC]
1,"CCN(CC)Cc1ccc2cc(COC(=O)Nc3ccc(C(=O)NO)cc3)ccc2c1 [ITF 2357, Givinostat]",13.67

# Same assay, conditions: 10 uM, 48 hrs; average relative cell viability (vs 1% DMSO) of non-amplified cells (OVSAHO, CAOV3) minus that of MYC-HSF1 amplified cells (OVCAR8, OVCAR4); positive = greater response in amplified cells; listed as OTX-015, 10 µM
row,SMILES,Non Amp - AMP (POC) 10 uM [POC]
1,Cc1sc2c(c1C)C(c1ccc(Cl)cc1)=N[C@@H](CC(=O)Nc1ccc(O)cc1)c1nnc(C)n1-2 [OTX015],2.251

# Same assay, conditions: 10 uM, 48 hrs; average relative cell viability (vs 1% DMSO) of non-amplified cells (OVSAHO, CAOV3) minus that of MYC-HSF1 amplified cells (OVCAR8, OVCAR4); positive = greater response in amplified cells; listed as PFI 3, 10 µM
row,SMILES,Non Amp - AMP (POC) 10 uM [POC]
1,O=C(/C=C/N1C[C@H]2C[C@@H]1CN2c1ccccn1)c1ccccc1O [PFI-3],5.077

# Same assay, conditions: 10 uM, 48 hrs; average relative cell viability (vs 1% DMSO) of non-amplified cells (OVSAHO, CAOV3) minus that of MYC-HSF1 amplified cells (OVCAR8, OVCAR4); positive = greater response in amplified cells; listed as Trichostatin A (TSA), 10 µM
row,SMILES,Non Amp - AMP (POC) 10 uM [POC]
1,CC(/C=C/C(=O)NO)=C\[C@@H](C)C(=O)c1ccc(N(C)C)cc1 [Trichostatin A],28.28

# Same assay, conditions: 10 uM, 48 hrs; average relative cell viability (vs 1% DMSO) of non-amplified cells (OVSAHO, CAOV3) minus that of MYC-HSF1 amplified cells (OVCAR8, OVCAR4); positive = greater response in amplified cells; listed as UNC 0224, 10 µM
row,SMILES,Non Amp - AMP (POC) 10 uM [POC]
1,COc1cc2c(NC3CCN(C)CC3)nc(N3CCCN(C)CC3)nc2cc1OCCCN(C)C [UNC0224],−1.296
